In patent publication US20210156844A1, “TMEM16A Modulation for Diagnostic or Therapeutic Use in Pulmonary Hypertension (PH)” (Bayer Aktiengesellschaft, priority 2017, published 2021):

Assays:
[1] = test system: U-46619 preconstricted isolated mouse PA; assay: Measurement of pulmonary artery tone ex vivo; conditions: cumulatively increasing concentrations 0.1 to 30 μM; U-46619 30 nM
Description: Pulmonary artery rings were isolated from male C57BL/6J mice (20-25 weeks old, Charles River, Wilmington Mass., USA), as described by Jain et al. (Jain, P P, et al., Int. J. Nanomedicine (2014) 9, 3249-3261). Following stable contraction (approx. 30 minutes post-addition of U-46619, 30 nM), the arteries were subjected to cumulatively increasing concentrations (0.1 to 30 μM) of the TMEM6A blockers T16Ainh-A01 (Tocris) and benzbromarone (Sigma) in order to analyze the concentration-response relationships.

PASMC = assay: Membrane potential (Em) measurement, current clamp, primary PASMC; type: cell-based, human; conditions: BBR 30 μM, T16Ainh-A01 10 μM
Description: PASMC were grown on glass coverslips and serum starved for 24-48 hours. The coverslips were perfused with a bath solution composed of (in mM) NaCl 141, KCl 4.7, HEPES 10, glucose 10, CaCl2 1.8, MgCl2 1.2, pH 7.4 (NaOH) at room temperature. Micropipettes were pulled of borosilicate glass capillaries (GC150F-10, Harvard Apparatus Ltd, Edenbridge, Kent, UK) with a P-2000 electrode puller (Sutter Instruments, Novato Ca, USA), and fire polished using a micro-forge (MF-830, Narishige, Tokyo, Japan) to give a final resistance of 3-5 MΩ when filled with the pipette solution (composition in mM: NaCl 10, KCl 125, K2ATP 5, HEPES 10, EGTA 5, MgCl2 4, pH set to 7.2 with KOH). Em was measured with a HEKA EPC10 patch clamp amplifier (Dr. Schulze GmbH, Lambrecht, Germany) in the current clamp mode as described by others (Mason, M J, et al., Biophys. J. (2005) 88, 739-750; Perkins, KL, J. Neurosci. Methods (2006) 154, 1-18).
The liquid junction potential was calculated with the Clampex 10.0 software (Molecular Devices, Sunnyvale Calif., USA) and an online correction was made for each recording. Both at baseline and during perfusion with 30 μM benzbromarone (BBR, Sigma, St Louis Mo., USA) or 10 μM T16Ainh-A01 (Tocris, Bristol, UK), only those recordings in which (1) the Em was constant for at least 3 minutes, and (2) the seal resistance was constantly high (>5 GΩ) were used for the analyses.
The HEK-293 cells were transfected overnight either with the CLCA1 gene containing or with the empty plasmid, using the Effectene transfection reagent kit (Qiagen) and DMEM F-12 complete medium. On the next day, the medium was changed to serum-free SMC Medium. The resulting conditioned media were collected 24 hours later and applied on the PASMC of healthy donors. After 24 hours of incubation, the Em of the PASMC was measured as described above. To confirm the presence of CLCA1 in the conditioned medium, 20 μL of conditioned medium as well as control medium (collected from cells transfected with the empty plasmide) were analyzed with western blot as described above, using a CLCA1 antibody (ab108851, Abcam).

CCc1c(C)nc(SCC(=O)Nc2nc(-c3ccc(OC)cc3)cs2)[nH]c1=O [T16Ainh-A01, 2-[(5-Ethyl-1,6-dihydro-4-methyl-6-oxo-2-pyrimidinyl)thio]-N-[4-(4-methoxyphenyl)-2-thiazolyl]-acetamide]
vasorelaxation of preconstricted PA [1]: dose-dependent vasorelaxation | reversal of the Em of IPAH-PASMC to the levels of PASMC isolated from healthy donors (PASMC; PASMC of IPAH patients): close | effect on Em of PASMC of donors (PASMC; PASMC of healthy donors): no effect
